Values of other authors, collected in patent US6689909B1, “Substituted N-phenyl 2-hydroxy-2-methyl-3,3,3-trifluoropropanamide derivatives which elevate pyruvate dehydrogenase activity” (AstraZeneca AB, priority 1999, dated 2004).

Legend:
[1] = test system: PDH; settings: single administration, 150 mg/kg, intraperitoneally
[2] = after repeated administration

O=C(O)C(Cl)Cl [DCA, dichloroacetic acid]
proportion of PDH in its active form [1]: increased the proportion of PDH in its active form | plasma glucose [2]: significant decrease in plasma glucose
